Source: publication PMC4619705 (PLoS ONE, 2015)
Entries after “also recorded” stand apart in the source; their conditions may differ.

Columns and labels:
Format in all cases: cell-based
homomeric α2 GABAARs = target: T1, homomeric α2 GABAARs (Homo sapiens, UniProt P47869); test: Two-electrode voltage clamp of oocytes injected with α2 mRNA alone
T1 construct: expressed in transfected cells; host or cells: Xenopus laevis oocytes injected with α2 mRNA alone (28–35 ng/oocyte)
T1 sequence (P47869 29-451): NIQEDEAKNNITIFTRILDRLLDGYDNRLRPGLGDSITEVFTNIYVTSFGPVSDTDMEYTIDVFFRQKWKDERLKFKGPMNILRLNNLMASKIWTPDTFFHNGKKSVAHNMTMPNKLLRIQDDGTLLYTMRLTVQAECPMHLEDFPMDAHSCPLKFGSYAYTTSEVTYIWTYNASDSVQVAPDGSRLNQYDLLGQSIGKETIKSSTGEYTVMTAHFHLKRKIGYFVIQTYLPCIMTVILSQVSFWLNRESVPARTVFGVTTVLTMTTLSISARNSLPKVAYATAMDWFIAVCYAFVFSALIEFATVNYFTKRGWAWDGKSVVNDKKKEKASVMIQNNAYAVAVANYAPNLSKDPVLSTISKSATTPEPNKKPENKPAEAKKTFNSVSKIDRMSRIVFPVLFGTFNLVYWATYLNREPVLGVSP
Source text: (§1) Human complementary DNA (cDNA) of GABAAR α2 subunit (vector: pCMV6-XL5) was purchased from OriGene Technologies (Rockville, MD, USA), and the human β3 (vector: pGEMHE) and γ2L (vector: pCDM8) subunits were generous gifts from Dr. Bjarke Ebert (H. Lundbeck A/S, Valby, Denmark) and Dr. Paul Whiting (Merck, Sharp and Dohme Research Laboratories, Harlow, Essex, UK) respectively. […] Plasmid vectors with the cDNA incorporated were linearised using appropriate restriction endonucleases (α2: SmaI; β3: NheI; γ2L: NotI). Capped RNA transcripts were synthesised from linearised plasmids using the mMessage mMachine T7 transcript kit from Ambion (Austin, TX, USA). Purified messenger RNA (mRNA) was dissolved in nuclease-free water (Ambion, Austin, TX, USA), and its quality was assessed using 1% agarose gel electrophoresis. The concentration of each subunit mRNA was measured using Nanodrop ND-100 UV-Vis spectrophotometer (Thermo Fisher Scientific, North Ryde, NSW, Australia).
Various combinations of α2, β3 and γ2L subunit mRNAs were mixed to different ratios as stated in the text, and diluted accordingly to a concentration of 5 ng/μL (unless otherwise stated). […] Injected oocytes were stored in ND96 storage solution supplemented with 50 μg/mL gentamycin and tetracycline at 18°C. […]

α2γ2L receptors = target: T2, α2γ2L receptors (Homo sapiens, UniProt P18507+P47869); test: Two-electrode voltage clamp of binary α2γ2L receptors expressed in Xenopus oocytes
T2 construct: expressed in transfected cells; host or cells: Xenopus laevis oocytes injected with α2 and γ2L mRNAs
T2 sequence (P18507 40-475, one chain of several): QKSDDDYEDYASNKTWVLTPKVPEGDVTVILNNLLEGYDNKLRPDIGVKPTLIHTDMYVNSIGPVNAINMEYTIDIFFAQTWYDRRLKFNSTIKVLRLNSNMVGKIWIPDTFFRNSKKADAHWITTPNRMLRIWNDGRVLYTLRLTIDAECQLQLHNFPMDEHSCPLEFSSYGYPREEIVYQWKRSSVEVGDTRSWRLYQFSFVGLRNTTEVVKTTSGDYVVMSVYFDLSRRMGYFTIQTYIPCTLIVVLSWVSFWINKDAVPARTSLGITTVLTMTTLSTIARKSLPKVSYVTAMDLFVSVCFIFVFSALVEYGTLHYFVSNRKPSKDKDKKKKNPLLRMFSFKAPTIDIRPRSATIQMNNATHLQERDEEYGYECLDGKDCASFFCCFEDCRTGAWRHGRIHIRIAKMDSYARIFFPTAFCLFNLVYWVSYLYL
Source text: as §1
(§2) Various combinations of α2, β3 and γ2L subunit mRNAs were mixed to different ratios as stated in the text, and diluted accordingly to a concentration of 5 ng/μL (unless otherwise stated). […] Injected oocytes were stored in ND96 storage solution supplemented with 50 μg/mL gentamycin and tetracycline at 18°C. Two-electrode voltage clamp recordings were performed on oocytes 2–4 days post-injection at room temperature (20–25°C) using a GeneClamp 500B amplifier (ADInstruments, Sydney, NSW, Australia) or a Warner OC-725C Oocyte Clamp (Warner Instrument Corp, Hamden, CT, USA). All experiments were conducted at a holding potential of –60 mV, and data were acquired with a PowerLab 2/25, and LabChart (version 5.0.2) software (ADInstruments, Sydney, NSW, Australia). The recording microelectrodes (0.2–1.1 MΩ) were generated from capillary glass (Harvard Apparatus, Holliston, MA, USA) using a single-stage glass microelectrode puller (Narishige, Tokyo, Japan), and were filled with 3 M KCl solution. The perfusion system was built using a series of polycarbonate, high-density polyethylene two-way stopcocks (Qosina, Edgewood, NY, USA), connected through tubing to the recording chamber (100 μL), where the oocyte was continuously perfused with ND96 recording solution (96 mM NaCl, 2 mM KCl, 1 mM MgCl2, 1.8 mM CaCl2, 5 mM HEPES hemisodium; pH 7.4) at an approximate rate of 5 mL/min.
(§3) Perfusates containing these chemicals were made up fresh before each application. The concentration-response curves of agonists were obtained by exposing oocytes to increasing concentrations of agonists until the currents peaked. […] All experiments were performed using at least two different batches of oocytes.

β3 homomeric receptors = target: T3, β3 homomeric receptors (Homo sapiens, UniProt P28472); test: Two-electrode voltage clamp of β3 homomeric receptors expressed in Xenopus oocytes
T3 construct: expressed in transfected cells; host or cells: Xenopus laevis oocytes injected with β3 mRNA (5 ng/oocyte)
T3 sequence (P28472 26-473): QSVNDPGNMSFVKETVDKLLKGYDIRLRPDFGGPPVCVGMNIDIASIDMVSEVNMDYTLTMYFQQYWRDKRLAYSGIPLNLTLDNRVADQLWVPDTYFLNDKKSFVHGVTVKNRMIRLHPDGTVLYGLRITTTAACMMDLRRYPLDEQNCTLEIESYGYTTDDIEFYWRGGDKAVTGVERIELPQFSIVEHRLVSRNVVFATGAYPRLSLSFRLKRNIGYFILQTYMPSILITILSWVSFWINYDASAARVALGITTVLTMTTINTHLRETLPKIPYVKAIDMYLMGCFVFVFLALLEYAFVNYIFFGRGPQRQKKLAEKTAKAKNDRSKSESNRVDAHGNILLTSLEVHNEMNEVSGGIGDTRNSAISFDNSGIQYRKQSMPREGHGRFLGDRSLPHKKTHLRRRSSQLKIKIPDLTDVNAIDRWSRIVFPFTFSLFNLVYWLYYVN
Source text: as §1, §2, §3
Prism (version 5.04; GraphPad Software, La Jolla, CA, USA) was used for data analysis. […]

γ2L homomeric receptors = target: T4, γ2L homomeric receptors (Homo sapiens, UniProt P18507); test: Two-electrode voltage clamp of γ2L homomeric receptors expressed in Xenopus oocytes; conditions: γ2L alone
T4 construct: expressed in transfected cells; host or cells: Xenopus laevis oocytes injected with γ2L mRNA alone (high amounts)
T4 sequence (P18507 40-475): as the sequence (P18507 40-475, one chain of several) above
Source text: as §1, §2, §3

α2β3 GABAARs = target: T5, α2β3 GABAARs (Homo sapiens, UniProt P28472+P47869); test: Two-electrode voltage clamp of binary α2β3 GABAARs expressed in Xenopus oocytes
T5 construct: expressed in transfected cells; host or cells: Xenopus laevis oocytes injected with capped mRNA, α2:β3 20:1
T5 sequence (P47869 29-451): T1 sequence (P47869 29-451)
T5 sequence (P28472 26-473): T3 sequence (P28472 26-473)
Source text: as §1, §2, §3
(§4) Prism (version 5.04; GraphPad Software, La Jolla, CA, USA) was used for data analysis.
(§5) In all cases, we constrained the bottom to 0, and when fitting data to the biphasic model, the Hill slopes were constrained to 1. Statistical comparisons of results for different injection ratios of β3γ2L receptors were performed using ANOVA with Tukey’s post-hoc test. When comparing results from different injection ratios of β3γ2L receptors with α2β3γ2L receptors, the ANOVA Dunnett’s test was used. Pairwise comparisons were performed using Student’s t test. Statistical significance was attained at p < 0.05.

α2β3γ2L GABAARs = target: T6, α2β3γ2L GABAARs (Homo sapiens, UniProt P18507+P28472+P47869); test: Two-electrode voltage clamp of recombinant α2β3γ2L GABAARs expressed in Xenopus oocytes
T6 construct: expressed in transfected cells; host or cells: Xenopus laevis oocytes injected with capped mRNA, α2:β3:γ2L 3:1:3
T6 sequence (P18507 40-475, one chain of several): as the sequence (P18507 40-475, one chain of several) above
Source text: as §1, §2, §3, §4, §5

| Structure (SMILES) | 2’MeO6MF activity (homomeric α2 GABAARs; 100 μM) | 2’MeO6MF activity (α2γ2L receptors; α2γ2L 1:1, 100 μM) | 2’MeO6MF activity (β3 homomeric receptors; β3 alone, 3–300 μM) | Maximal inhibition of constitutive activity (normalised against oocyte holding current) (β3 homomeric receptors; β3 homomers, 300 μM ligand) | 2’MeO6MF activity (γ2L homomeric receptors; 100 μM) | 2’MeO6MF activity (α2β3 GABAARs; α2β3 20:1, 100 μM) | Elicited current, % of the 3 mM GABA responses (α2β3 GABAARs; α2β3 20:1, 100 μM ligand) | Enhancement of GABA current (co-application) (α2β3 GABAARs; α2β3 20:1, GABA EC3–10 + 100 or 300 μM ligand, data not shown) | EC50 (α2β3γ2L GABAARs) | 2’MeO6MF activity (α2β3γ2L GABAARs; α2β3γ2L 3:1:3) | Direct activation, % of the 3 mM GABA response (α2β3γ2L GABAARs; α2β3γ2L 3:1:3, 300 μM ligand, mean ± SEM) | Enhancement of GABA current (co-application) (α2β3γ2L GABAARs; α2β3γ2L 3:1:3, GABA EC3–10 + 100 or 300 μM ligand, data not shown) | Expression level (current response elicited by GABA) (homomeric α2 GABAARs; 28–35 ng mRNA/oocyte, 60 mM GABA, -60 mV) | Expression level (current response elicited by GABA) (α2γ2L receptors; α2γ2L 1:1, 5 ng mRNA, 60 mM GABA, -60 mV) | Expression level (current response elicited by GABA) (β3 homomeric receptors; β3 alone, 5 ng mRNA/oocyte, 60 mM GABA, -60 mV) | Expression level (current response elicited by GABA) (γ2L homomeric receptors; 20–35 ng mRNA/oocyte, 60 mM GABA, -60 mV) | Expression level (current response elicited by GABA) (α2β3 GABAARs; α2β3 20:1, 5 ng mRNA, 3 mM GABA, -60 mV) | Expression level (current response elicited by GABA) (α2β3γ2L GABAARs; α2β3γ2L 3:1:3, 3 mM GABA) |
| --- | --- | --- | --- | --- | --- | --- | --- | --- | --- | --- | --- | --- | --- | --- | --- | --- | --- | --- |
| COc1ccccc1-c1cc(=O)c2cc(C)ccc2o1 [2’MeO6MF, 2’-methoxy-6-methylflavone] | did not detect function; also recorded: No current | no function; also recorded: No current | Inverse agonism | 54 ± 3.0% | not sensitive; also recorded: not responsive; also recorded: No current | lack of activity; also recorded: Insignificant activation | 1.7 ± 0.35% | No enhancement | ~74 µM | Activation | 8.2 ± 3.6% | No enhancement | – | – | – | – | – | – |
| NCCCC(=O)O [GABA, γ-aminobutyric acid] | – | – | – | – | – | – | – | – | – | – | – | – | did not detect function; also recorded: No current | no function; also recorded: No current | 290 ± 67 nA | not sensitive; also recorded: not responsive; also recorded: No current | 1100 ± 220 nA | 4300 ± 940 nA |
